Structures are written as SMILES. Bounds are passed on as bounds.

This assay relates to Culex pipiens pallens. The assay is described as follows: Knockdown spray test on adult Culex pipiens pallens (Test Example 4). The assay is classed as in vivo. The conditions noted are these: topical, 0.25 h, active ingredient 0.1% w/v, 0.5 ml sprayed, within 15 minutes, read-out: knockdown rate of the test insects within 15 minutes. As to the method: Ten adult Culex pipiens pallens were released in a polyethylene cup (bottom diameter: 10.6 cm), and the cup was covered with a 16-mesh nylon gauze. The polyethylene cup was placed on the bottom of a test chamber (bottom: 46 cm×46 cm, height: 70 cm). From a height of 30 cm above the upper surface of the polyethylene cup, 0.5 ml of the test drug solution was sprayed using a spray gun (a spraying pressure of 0.4 kg/cm^2). Immediately after spraying, the cup was taken out from the test chamber, and after 2 minutes, 5 minutes and 15 minutes, the number of knocked-down insects was counted to obtain a knockdown rate. The knockdown rate was calculated by the following equation.
Knockdown Rate (%)=(Number of Knocked-down Insects/Number of Tested Insects)×100

Turning to `O=C(NCC1COCO1)c1cc(COCc2ccccc2)on1` (stereo not drawn) [(35), N-[4-(1,3-dioxolyl)methyl]-5-benzyloxymethylisoxazole-3-carboxamide], the pest or weed control at 0.1 % strength was at least 80%.
With `O=C(NC1CSC1)c1cc(COCc2ccccc2)on1` [(40), N-(thietan-3-yl)-5-benzyloxymethylisoxazole-3-carboxamide], the pest or weed control at 0.1 % strength is at least 80%.
As to `O=C(NCC1CCOC1)c1ncc(COc2ccccc2)s1` (stereo not drawn) [(47), N-(tetrahydrofuran-3-ylmethyl)-5-phenoxymethythiazole-2-carboxamide], the pest or weed control at 0.1 % strength was at least 80%.
For `O=C(NCC1CCOC1)c1ncc(COCc2ccccc2)s1` (stereo not drawn) [(48), N-(tetrahydrofuran-3-ylmethyl)-5-benzyloxymethythiazole-2-carboxamide], the pest or weed control at 0.1 % strength is at least 80%.
For the compound `O=C(NCC1CCOC1)c1cc(COCc2ccsc2)on1` (stereo not drawn) [(107), N-(tetrahydrofuran-3-ylmethyl)-5-(thiophen-3-ylmethoxymethyl)isoxazole-3-carboxamide], the pest or weed control at 0.1 % strength was at least 80%.
Regarding `O=C(NCC1CCOCC1)c1cc(COCc2ccsc2)on1` [(108), N-(tetrahydropyran-4-ylmethyl)-5-(thiophen-3-ylmethoxymethyl)isoxazole-3-carboxamide], the pest or weed control at 0.1 % strength was at least 80%.
With `O=C(NCC1CCOC1)c1cc(COCc2ccc(Oc3ccccc3)cc2)on1` (stereo not drawn) [(117), N-(tetrahydrofuran-3-ylmethyl)-5-(4-phenoxybenzyloxymethyl) isoxazole-3-carboxamide], the pest or weed control at 0.1 % strength was at least 80%.
On to `Cc1c(COCc2cc(C(=O)NCC3CCOC3)no2)cccc1-c1ccccc1` (stereo not drawn) [(123), N-(tetrahydrofuran-3-ylmethyl)-5-(2-methyl-3-phenylbenzyloxymethyl)isoxazole-3-carboxamide], for which the pest or weed control at 0.1 % strength is at least 80%.
For the compound `CC(OCc1cc(C(=O)NCC2CCOC2)no1)c1ccccc1` (stereo not drawn) [(125), N-(tetrahydrofuran-3-ylmethyl)-5-[(1-phenylethyl)oxymethyl]isoxazole-3-carboxamide], the pest or weed control at 0.1 % strength was at least 80%.
Regarding `O=C(NCC1CCOC1)c1cc(COCCCCc2ccccc2)on1` (stereo not drawn) [(135), N-(tetrahydrofuran-3-ylmethyl)-5-(4-phenylbutoxymethyl)isoxazole-3-carboxylic acid-3-carboxamide], the pest or weed control at 0.1 % strength is at least 80%.
Turning to `O=C(NCC1CCOCC1)c1cc(COCCCCc2ccccc2)on1` [(136), N-(tetrahydropyran-4-ylmethyl)-5-(4-phenylbutoxymethyl)isoxazole-3-carboxamide], the pest or weed control at 0.1 % strength is at least 80%.
Take `O=C(NCC1CCOC1)c1cc(COCCCCCc2ccccc2)on1` (stereo not drawn) [(137), N-(tetrahydrofuran-3-ylmethyl)-5-(5-phenylpentyloxymethyl)isoxazole-3-carboxylic acid-3-carboxamide]: the pest or weed control at 0.1 % strength is at least 80%.
`O=C(NCC1CCOCC1)c1cc(COCCCCCc2ccccc2)on1` [(138), N-(tetrahydropyran-4-ylmethyl)-5-(5-phenylpentyloymethyl)isoxazole-3-carboxamide]: the pest or weed control at 0.1 % strength is at least 80%.
With `O=C(NCC1CCOC1)c1cc(CCCOc2ccccc2)on1` (stereo not drawn) [(145), N-(tetrahydrofuran-3-ylmethyl)-5-(3-phenoxypropyl)isoxazole-3-carboxamide], the pest or weed control at 0.1 % strength is at least 80%.
In the case of `O=C(NCC1CCOC1)c1cc(CCCCCOc2ccccc2)on1` (stereo not drawn) [(147), N1-(tetrahydrofuran-3-ylmethyl)-5-(5-phenoxypentyl)isoxazole-3-carboxamide], the pest or weed control at 0.1 % strength is at least 80%.
As for `O=C(NCC1CCOC1)c1cc(CCCCCCOc2ccccc2)on1` (stereo not drawn) [(148), N-(tetrahydrofuran-3-ylmethyl)-5-(6-phenoxyhexyl)isoxazole-3-carboxamide], the pest or weed control at 0.1 % strength was at least 80%.
For the compound `O=C(NCC1CCOC1)c1cc(Cc2cc3ccccc3s2)on1` (stereo not drawn) [(161), N-(tetrahydrofuran-3-ylmethyl)-5-(benzo[b]thiophen-2-ylmethy)isoxazole-3-carboxamide], the pest or weed control at 0.1 % strength is at least 80%.
As for `O=C(NCC1CCOC1)c1cc(Cc2ccc(Oc3ccccc3)cc2)on1` (stereo not drawn) [(162), N-(tetrahydrofuran-3-ylmethyl)-5-(4-phenoxybenzyl)isoxazole-3-carboxamide], the pest or weed control at 0.1 % strength is at least 80%.
In the case of `O=C(NCC1CCOC1)c1cc(Cc2cccc(Oc3ccccc3)c2)on1` (stereo not drawn) [(163), N-(tetrahydrofuran-3-ylmethyl)-5-(3-phenoxybenzyl)isoxazole-3-carboxamide] it was at least 80%.
As for `O=C(NCC1CCOCC1)c1cc(COc2cccc(Cl)c2)on1` [(179), N-(tetrahydropyran-4-ylmethyl)-5-(3-chlorophenoxymethyl)isoxazole-3-carboxamide], the pest or weed control at 0.1 % strength was at least 80%.
For `O=C(NCC1CCOCC1)c1cc(COc2ccc(F)cc2)on1` [(185)], the pest or weed control at 0.1 % strength was at least 80%.
For the compound `O=C(NCC1CCOCC1)c1cc(COc2ccc(SC(F)(F)F)cc2)on1` [(193), N-(tetrahydropyran-4-ylmethyl)-5-(4-trifluoromethylthiophenoxymethyl)isoxazole-3-carboxamide], the pest or weed control at 0.1 % strength was at least 80%.
On to `O=C(NCC1CCOC1)c1cc(COc2cccc(SC(F)(F)F)c2)on1` (stereo not drawn) [(202), N-(tetrahydrofuran-3-ylmethyl)-5-(3-trifluoromethylthiophenoxymethyl)isoxazole-3-carboxamide], for which the pest or weed control at 0.1 % strength is at least 80%.
For the compound `O=C(NCC1CCOCC1)c1cc(COc2cccc(SC(F)(F)F)c2)on1` [(203), N-(tetrahydropyran-4-ylmethyl)-5-(3-trifluoromethylthiophenoxymethyl)isoxazole-3-carboxamide], the pest or weed control at 0.1 % strength was at least 80%.
The same measure for `O=C(NCC1CCOC1)c1noc(COCc2ccc3ccccc3c2)c1CO` (stereo not drawn) [(209), N-(tetrahydrofuran-3-ylmethyl)-4-hydroxymethyl-5-(2-naphthylmethoxymethyl)isoxazole-3-carboxamide]: at least 80%; for `COc1ccccc1COCc1cc(C(=O)NCC2CCOC2)no1` (stereo not drawn) [(227), N-(tetrahydrofuran-3-ylmethyl)-5-(2-methoxybenzyloxymethyl) isoxazole-3-carboxamide]: at least 80%; for `O=C(NCC1COCO1)c1cc(CCCc2ccc3ccccc3c2)on1` (stereo not drawn) [(229), N-(1,3-dioxolan-4-ylmethyl)-5-[3-(2-naphthyl)propyl]isoxazole-3-carboxamide]: at least 80%.
Take `O=C(NCC1CCOC1)c1cc(CCCc2ccc3c(c2)OC(F)(F)O3)on1` (stereo not drawn) [(231), N-(tetrahydrofuran-3-ylmethyl)-5-[5-(2,2-difluoro-1,3-benzodioxolanyl)propyl]isoxazole-3-carboxamide]: the pest or weed control at 0.1 % strength was at least 80%.
As for `O=C(NCC1COCCO1)c1cc(CCCc2ccc3c(c2)OC(F)(F)O3)on1` (stereo not drawn) [(232), N-(1,4-dioxan-2-ylmethyl)-5-[3-(5-(2,2-difluoro-1,3-benzodioxolanyl))propyl]isoxazole-3-carboxamide], the pest or weed control at 0.1 % strength was at least 80%.
Take `O=C(NCC1COCCO1)c1cc(COCc2ccc3ccccc3c2)on1` (stereo not drawn) [(233), N-(1,4-dioxan-2-ylmethyl)-5-(2-naphthylmethoxymethyl)isoxazole-3-carboxamide]: the pest or weed control at 0.1 % strength is at least 80%.
As for `O=C(NCC1CCOC1)c1cc(COCc2ccc3c(c2)OC(F)(F)O3)on1` (stereo not drawn) [(236), N-(tetrahydrofuran-3-ylmethyl)-5-[5-(2,2-difluoro-1,3-benzodioxolanyl)methoxymethyl]isoxazole-3-carboxamide], the pest or weed control at 0.1 % strength was at least 80%.
For `O=C(NCC1CCOCC1)c1cc(COCc2ccc3c(c2)OC(F)(F)O3)on1` [(237), N-(tetrahydropyran-4-ylmethyl)-5-[5-(2,2-difluoro-1,3-benzodioxolanyl)methoxymethyl]isoxazole-3-carboxamide], the pest or weed control at 0.1 % strength is at least 80%.
On to `CC1(CNC(=O)c2cc(COCc3ccc4c(c3)OC(F)(F)O4)on2)COC1` [(238), N-(3-methyloxetan-3-ylmethyl)-5-[5-(2,2-difluoro-1,3-benzodioxolanyl)methoxymethyl]isoxazole-3-carboxamide], for which the pest or weed control at 0.1 % strength was at least 80%.
With `O=C(NCC1CCOC1)c1cc(COCc2ccc(-c3ccccc3)s2)on1` (stereo not drawn) [(241), N-(tetrahydrofuran-3-ylmethyl)-5-(5-phenyl-2-thienylmethoxymethyl)isoxazole-3-carboxamide], the pest or weed control at 0.1 % strength is at least 80%.
With `O=C(NCC1CCOC1)c1cc(CCCc2ccccc2F)on1` (stereo not drawn) [(245), N-(tetrahydrofuran-3-ylmethyl)-5-[3-(2-fluorophenyl)propyl]isoxazole-3-carboxamide], the pest or weed control at 0.1 % strength is at least 80%.
Consider `COc1ccc2cc(CCCc3cc(C(=O)NCC4CCOC4)no3)ccc2c1` (stereo not drawn) [(247), N-(tetrahydrofuran-3-ylmethyl)-5-[3-(6-methoxy-2-naphthyl)propyl]isoxazole-3-carboxamide], for which the pest or weed control at 0.1 % strength is at least 80%.
Turning to `O=C(NCC1CCOC1)c1cc(CCCBr)on1` (stereo not drawn) [(248), N-(tetrahydrofuran-3-ylmethyl)-5-(3-bromopropyl)isoxazole-3-carboxamide], the pest or weed control at 0.1 % strength is at least 80%.
On to `C#Cc1c(C(=O)NCC2CCOC2)noc1COCc1ccccc1F` (stereo not drawn) [(249), N-(tetrahydrofuran-3-ylmethyl)-5-(2-fluorobenzyloxymethyl)-4-ethynylisoxazole-3-carboxamide], for which the pest or weed control at 0.1 % strength is at least 80%.
In the case of `C#Cc1c(C(=O)NCC2CCOC2)noc1COCc1ccc2ccccc2c1` (stereo not drawn) [(250), N-(tetrahydrofuran-3-ylmethyl)-5-(2-naphthylmethoxymethyl)-4-ethynylisoxazole-3-carboxamide], the pest or weed control at 0.1 % strength was at least 80%.

The values above are taken from patent US20150344466A1 (SUMITOMO CHEMICAL COMPANY, LIMITED, priority 2013, published 2015).
